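Each compound was tested at five concentrations against cells in 96-well plates for 48 hours. TGI denotes the concentration required for complete inhibition of growth.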

Among the test systems are K-562 leukemia; LXFL 529 NSCLC; KM12 colon; HCT-116 colon; CCRF-CEM leukemia; OVCAR-8 ovarian; NCI-H522 lung; HL-60(TB) leukemia; ACHN renal; UO-31 renal; MOLT-4 leukemia; OVCAR-5 ovarian; IGROV1 ovarian; RPMI-8226 leukemia; SF-295 CNS; MALME-3M melanoma; A498 renal; MCF7 breast; HS 578T breast; DU-145 prostate.
Common to all, as to assay: inhibition of tumour cell growth, NCI panel, 48 h

With `O=C(c1ccco1)N(C(=S)N1CCN(c2ccccn2)CC1)c1ccccc1`, the TGI in the assay on K-562 leukemia, with LXFL 529 NSCLC, with KM12 colon, with HCT-116 colon, in the assay with CCRF-CEM leukemia and in the assay on OVCAR-8 ovarian was > 100 µM in each case. The TGI in the assay with NCI-H522 lung, with HL-60(TB) leukemia, in the assay with ACHN renal, in the assay on UO-31 renal, with MOLT-4 leukemia and in the assay on OVCAR-5 ovarian was > 100 µM throughout. Further, the TGI in the assay on IGROV1 ovarian, with RPMI-8226 leukemia, with SF-295 CNS and with MALME-3M melanoma was > 100 µM in each case.
On to `COc1ccc(/C(Cl)=C(\C=O)c2ccc(Cl)cc2)cc1OC`, for which the TGI with K-562 leukemia is 71.3 µM; in the assay with LXFL 529 NSCLC, 37.4 µM; in the assay with HCT-116 colon, 33.3 µM; in the assay with CCRF-CEM leukemia, 10.3 µM; in the assay with OVCAR-8 ovarian, 28.6 µM; with NCI-H522 lung it was 6.27 µM. Further, the TGI in the assay on HL-60(TB) leukemia was 7.74 µM; with ACHN renal, 13.1 µM; with UO-31 renal it was 28 µM; in the assay with MOLT-4 leukemia, 6.62 µM; in the assay on OVCAR-5 ovarian it was > 100 µM; in the assay with IGROV1 ovarian, 30.1 µM. In addition, the TGI with A498 renal was 54.3 µM; with RPMI-8226 leukemia, 62.9 µM; in the assay on SF-295 CNS, 14.4 µM; with MALME-3M melanoma, > 100 µM.
Take `C=CCn1c(=N)/c(=C(\N)O)s/c1=C1/SC(=S)N(c2ccc(C)cc2)C1=O`: the TGI with K-562 leukemia, with LXFL 529 NSCLC, in the assay with KM12 colon, in the assay on HCT-116 colon, with CCRF-CEM leukemia and with OVCAR-8 ovarian was > 100 µM each time. Moreover, the TGI in the assay with NCI-H522 lung, in the assay on HL-60(TB) leukemia, in the assay with ACHN renal, with UO-31 renal, in the assay with MOLT-4 leukemia and with OVCAR-5 ovarian was > 100 µM in each case. The TGI in the assay on IGROV1 ovarian, in the assay with A498 renal, with RPMI-8226 leukemia, with SF-295 CNS and in the assay on MALME-3M melanoma was > 100 µM in each case.
Consider `CN1NC(c2ccccc2)=C(C#N)C(=O)CC1c1ccc(Br)cc1` (stereo unspecified), for which the TGI with LXFL 529 NSCLC is > 100 µM; in the assay with KM12 colon it was > 100 µM; with HCT-116 colon, > 100 µM; in the assay on NCI-H522 lung, 53.7 µM; in the assay with HL-60(TB) leukemia, 83 µM; with ACHN renal, > 100 µM. Besides, the TGI was 73.7 µM in the assay with OVCAR-5 ovarian; > 100 µM in the assay on A498 renal; > 100 µM with RPMI-8226 leukemia; 91.2 µM with SF-295 CNS; > 100 µM with MALME-3M melanoma.
Regarding `CC[n+]1c(/C=C/c2ccc(N(CCCl)CCCl)cc2)ccc2cc(I)ccc21`, the TGI in the assay on K-562 leukemia was 1.6 µM; in the assay on LXFL 529 NSCLC it was 1.52 µM; in the assay on NCI-H522 lung, 1.64 µM; with HL-60(TB) leukemia, 0.675 µM; in the assay on ACHN renal it was 9.37 µM; with UO-31 renal it was 14.2 µM. Further, the TGI in the assay on MOLT-4 leukemia is 3.03 µM; in the assay with OVCAR-5 ovarian it was 7.77 µM; in the assay on IGROV1 ovarian it was 8.27 µM; in the assay with A498 renal, 13.1 µM; in the assay on RPMI-8226 leukemia it was 1.72 µM; with SF-295 CNS, 5.76 µM. The molecule further displayed a TGI with MALME-3M melanoma of 2.93 µM.
As for `C#C[C@]1(O)CC[C@H]2[C@@H]3CCC4=C/C(=N/OC(=O)c5cccc6c(=O)c7ccccc7[nH]c56)CCC4[C@H]3CC[C@@]21CC` (stereo partly specified), the TGI in the assay with K-562 leukemia is > 82.3 µM; with KM12 colon it was > 100 µM; in the assay with MCF7 breast it was > 93.5 µM; in the assay on HCT-116 colon, > 100 µM; in the assay with CCRF-CEM leukemia, > 54.1 µM; with OVCAR-8 ovarian, > 100 µM. Further, the TGI was 56.1 µM in the assay with NCI-H522 lung; > 100 µM with HS 578T breast; 11.7 µM with HL-60(TB) leukemia; > 100 µM in the assay with ACHN renal; > 84.3 µM in the assay on UO-31 renal; > 100 µM with DU-145 prostate. For the same molecule, the TGI is > 69.2 µM with MOLT-4 leukemia; > 100 µM in the assay with OVCAR-5 ovarian; > 100 µM in the assay with IGROV1 ovarian; > 100 µM with A498 renal; 10.6 µM in the assay with RPMI-8226 leukemia; > 100 µM in the assay with SF-295 CNS. For the same molecule, the TGI in the assay on MALME-3M melanoma is > 100 µM.
For `OC12c3ccccc3C1CCCCCC21OCCCO1` (stereo unspecified), the TGI with K-562 leukemia, in the assay with LXFL 529 NSCLC, in the assay with KM12 colon, in the assay on HCT-116 colon, in the assay on CCRF-CEM leukemia and in the assay with OVCAR-8 ovarian was > 100 µM throughout. Also, the TGI in the assay on NCI-H522 lung, in the assay on HL-60(TB) leukemia, with ACHN renal, in the assay with UO-31 renal, in the assay with MOLT-4 leukemia and in the assay on OVCAR-5 ovarian was > 100 µM throughout. In addition, the TGI in the assay with IGROV1 ovarian, in the assay on A498 renal, with RPMI-8226 leukemia, in the assay with SF-295 CNS and in the assay on MALME-3M melanoma was > 100 µM each time.
In the case of `CCC(=O)Nc1ccc(NCC(=O)Nc2ccc(OC)cc2)cc1`, the TGI was > 100 µM in the assay with K-562 leukemia; > 100 µM in the assay with KM12 colon; 33.3 µM in the assay with MCF7 breast; 80.3 µM with HCT-116 colon; > 100 µM in the assay on CCRF-CEM leukemia; 42.8 µM in the assay with OVCAR-8 ovarian. Further, the TGI was 29.5 µM in the assay on NCI-H522 lung; > 100 µM in the assay on HS 578T breast; > 100 µM with HL-60(TB) leukemia; > 100 µM in the assay with ACHN renal; > 100 µM in the assay with UO-31 renal; > 100 µM in the assay with DU-145 prostate. Further, the TGI in the assay with MOLT-4 leukemia is > 100 µM; with OVCAR-5 ovarian, 37.2 µM; in the assay on IGROV1 ovarian, 78 µM; in the assay on A498 renal, 87.9 µM; in the assay on RPMI-8226 leukemia, 90.5 µM; in the assay with SF-295 CNS it was > 100 µM. Further, in the assay on MALME-3M melanoma, the TGI came out at 49.5 µM.
On to `C=C(C)C(=O)OC1C[C@H](COC(C)=O)C2CC=C(CO)C2C2OC(=O)C(=C)[C@H]12` (stereo partly specified), for which the TGI in the assay with K-562 leukemia was 54.4 µM; in the assay with KM12 colon, > 100 µM; with MCF7 breast, > 100 µM; in the assay with HCT-116 colon, 38.2 µM; in the assay with CCRF-CEM leukemia, 31.5 µM; in the assay with OVCAR-8 ovarian it was > 100 µM. In addition, the TGI in the assay on NCI-H522 lung is 33.8 µM; with HS 578T breast it was > 100 µM; in the assay on HL-60(TB) leukemia, 76 µM; with ACHN renal, > 100 µM; in the assay with UO-31 renal, > 100 µM; with DU-145 prostate, > 100 µM. The TGI in the assay with MOLT-4 leukemia was 45.7 µM; in the assay with OVCAR-5 ovarian it was > 100 µM; with IGROV1 ovarian it was > 100 µM; in the assay on A498 renal, > 100 µM; in the assay with RPMI-8226 leukemia it was > 100 µM; in the assay on SF-295 CNS, > 100 µM. The TGI in the assay with MALME-3M melanoma was 44.3 µM.
Regarding `CC(C)=C[C@@H]1O[C@H](O)[C@@H]([C@H]2CC[C@@]3(C)[C@@H]4CC[C@H]5C(C)(C)C(=O)CC[C@@]56C[C@@]46CC[C@]23C)[C@@H]1O`, the TGI stood at 38.4 µM with K-562 leukemia; 34.9 µM in the assay on KM12 colon; 25 µM in the assay with MCF7 breast; 28.5 µM in the assay on HCT-116 colon; 24.1 µM in the assay on CCRF-CEM leukemia; 30.4 µM with OVCAR-8 ovarian. In addition, the TGI was determined as 30.3 µM in the assay with NCI-H522 lung; 48.4 µM with HS 578T breast; 30.2 µM in the assay on HL-60(TB) leukemia; 32 µM with ACHN renal; 28.6 µM in the assay on UO-31 renal; 29.6 µM in the assay with DU-145 prostate. The TGI is 32.4 µM with MOLT-4 leukemia; 57.8 µM in the assay with OVCAR-5 ovarian; 35.4 µM in the assay with IGROV1 ovarian; 32.8 µM in the assay with A498 renal; 12.7 µM in the assay on RPMI-8226 leukemia; 31.9 µM in the assay with SF-295 CNS. In the assay on MALME-3M melanoma, this molecule displayed a TGI of 37.7 µM.

Source of the values: PubChem BioAssay (NCI).
